Measured values published in patent US11787833B2, “Modified cyclic dinucleoside compounds as sting modulators” (ALIGOS THERAPEUTICS, INC., priority 2019, dated 2023).
Where two headings read alike, the source gives them in different places.

What was measured:
CT26 colon carcinoma [1] = experiment: CT26 mouse colon carcinoma in vivo efficacy study, intratumoral dosing; details: for Cure Rate (TV < 10 mm^3) / Treatment Failure (TV > 2000 mm^3): 100 μg intratumorally, 3 times, three days apart, BALB/c mice
Description: (§1) The in vivo antitumoral activity of compounds of Formula (I) were studied in the mouse CT26 colon carcinoma model. 10 female 9-week old BALB/c mice/group were implanted subcutaneously with 3×10^5 cells on the flank. Caliper measurements to assess the tumor volume (TV) and body weight measurements were performed daily for the first 8 days and biweekly thereafter until the end of the study. Dosing started when the tumor volumes reached a size of 100 mm^3. The compounds of Formula (I) were tested in two separate studies with their respective vehicle control. Compounds of Formula (I) were dosed 3 times, three days apart, intratumorally at either 25 or 100 μg. The human endpoint is predefined as a TV of 2000 mm^3.

[2] = target: T1, 293T-Dual hSTING-R232 cells (Homo sapiens, UniProt Q86WV6, H232R); experiment: 293T R232 cell reporter assay (HEK 293T reporter assay); format: cell-based; details: digitonin 10 μg/mL, 30 min exposure, 20 h incubation
T1 construct: host or cells: 293T-Dual hSTING-R232 cells (HEK 293T)
Description: 293T-Dual hSTING-R232 cells (Invivogen) were plated in 96 well plates at a density of 5×10^4 cells per well in DMEM supplemented with 10% FBS, 1% Pen-Strep, 1% non-essential amino acids, 1% glutamine, and 1% HEPES. Assay setup took place after allowing cells to adhere for 48 h. Compounds dissolved in water were serially diluted in dosing buffer containing 10 μg/mL digitonin. Media was aspirated from the cells, and 50 μL buffer with compound was added in triplicate. After 30 min at 37° C., buffer was aspirated and replaced with 100 μL media. Cells were incubated for 20 h at 37° C., 5% CO2. IFN-beta expression and activation of the interferon regulatory factor (IRF) were measured based on luciferase and alkaline phosphatase reporter activity, respectively. Cell viability was determined in parallel.

CT26 colon carcinoma [3] = experiment: CT26 mouse colon carcinoma combination study with anti-CTLA-4 (clone 9H10); format: in vivo
Description: as §1
The in vivo antitumoral activity of compounds of Formula (I) in combination with the immune checkpoint inhibitor anti-CTLA-4 (clone 9H10) was studied in the mouse CT26 colon carcinoma model. The study was performed as described in the first paragraph of Example C.

CT26 colon carcinoma [4] = experiment: CT26 mouse colon carcinoma study, intratumoral or subcutaneous administration; format: in vivo
Description: as §1
The in vivo antitumoral activity of compounds of Formula (I) after intratumoral of subcutaneous administration was studied in the mouse CT26 colon carcinoma model. The study was performed as in the first paragraph of Example C. Compounds of Formula (I) were dosed 2 or 3 times, three days apart (q3d) or 7 days apart (qw), intratumorally at either […] or subcutaneously at either 1 or 4 mg/kg.

[5] = EC50 [μM] IRF reporter, alkaline phosphatase reporter
[6] = EC50 [μM] IRN-β reporter, luciferase reporter
[7] = three times subcutaneously at 4 mg/kg
[8] = alkaline phosphatase reporter, read-out: EC50 [μM] IRF reporter
[9] = luciferase reporter, read-out: EC50 [μM] IRN-β reporter

T1 sequence (Q86WV6 whole entry H232R): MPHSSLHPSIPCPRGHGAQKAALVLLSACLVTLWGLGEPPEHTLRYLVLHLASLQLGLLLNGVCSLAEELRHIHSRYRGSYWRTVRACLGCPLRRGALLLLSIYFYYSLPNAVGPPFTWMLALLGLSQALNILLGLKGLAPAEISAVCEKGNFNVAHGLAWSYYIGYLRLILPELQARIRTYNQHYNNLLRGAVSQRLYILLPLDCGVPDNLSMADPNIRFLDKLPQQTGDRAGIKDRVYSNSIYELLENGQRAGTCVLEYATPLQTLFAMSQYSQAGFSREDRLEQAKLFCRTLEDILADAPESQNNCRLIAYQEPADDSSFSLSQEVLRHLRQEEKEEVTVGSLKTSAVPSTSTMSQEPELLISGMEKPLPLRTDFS

| EC50 [2, 8] | EC50 [2, 9] | Structure (SMILES) | other results |
| --- | --- | --- | --- |
|  |  | Nc1ncnc2c1ncn2[C@H]1[C@H](O)[C@@H]2O[P@@](=O)([S][Na])OC[C@H]3O[C@@H](n4cnc5c(=O)[nH]cnc54)[C@H](F)[C@@H]3OP(=O)(O)OC[C@@]23C[C@H]13 [Compound 1-20b] | Cure Rate (TV < 10 mm^3) (CT26 colon carcinoma [1]): 50%; Treatment Failure (TV > 2000 mm^3) (CT26 colon carcinoma [1]): 50%; EC50 [2, 5]: < 0.25 µM; EC50 [2, 6]: < 0.25 µM |
|  |  | CO[C@H]1[C@H]2OP(=O)(O)OC[C@]34C[C@@H]3[C@@H](n3cnc5c(N)ncnc53)[C@H](O)[C@@H]4O[P@@](=O)([S][Na])OC[C@H]1O[C@H]2n1cnc2c(=O)[nH]c(N)nc21 [Compound 10-b] | Complete Tumor Suppression (TV < 10 mm^3) (CT26 colon carcinoma [3]; 25 μg, IT/3 × q3d): 0; Treatment Failure (TV > 2000 mm^3) (CT26 colon carcinoma [3]; 25 μg, IT/3 × q3d): 100; delay of tumor growth (CT26 colon carcinoma [3]; three IT doses of 25 g): approx. 8 days; animals with complete tumor suppression (CT26 colon carcinoma [4]; dosed intratumorally at 100 μg): 4/10; animals with complete tumor suppression (CT26 colon carcinoma [4]; [7]): 1/10; delay of tumor growth (CT26 colon carcinoma [4]; [7]): further delay in tumor growth; delay of tumor growth compared to the vehicle group (CT26 colon carcinoma [4]; two subcutaneous administrations at 4 mg/kg): approx. 8 days |
| < 0.25 µM | < 0.25 µM | Nc1nc2c(ncn2[C@@H]2O[C@@H]3CO[P@](=O)([S][Na])O[C@H]4[C@@H](O)[C@H](n5cnc6c(N)ncnc65)[C@H]5C[C@]54COP(=O)([O-])O[C@@H]2[C@@H]3F)c(=O)[nH]1.[Na+] [Compound 1-22b] | Cure Rate (TV < 10 mm^3) (CT26 colon carcinoma [1]): 56%; Treatment Failure (TV > 2000 mm^3) (CT26 colon carcinoma [1]): 44% |
| < 0.25 µM | < 0.25 µM | Nc1nc2c(ncn2C2OC34COC2C3OP(=O)(O)OCC23CC2C(n2cnc5c(N)ncnc52)C(O)C3OP(=O)(S)OC4)c(=O)[nH]1 (stereo not shown) [Compound 1-21b] | Cure Rate (TV < 10 mm^3) (CT26 colon carcinoma [1]): 50%; Treatment Failure (TV > 2000 mm^3) (CT26 colon carcinoma [1]): 50% |
| 0.25 to 100 µM | 0.25 to 100 µM | Nc1nc2c(ncn2[C@H]2[C@H](O)[C@@H]3OP(=O)(O)OC[C@H]4C[C@@H](n5cnc6c(N)ncnc65)[C@H](O)[C@@H]4OP(=O)(O)OC[C@@]34C[C@H]24)c(=O)[nH]1 [Compound 1-23] |  |
| 0.25 to 100 µM | > 100 µM | Nc1ncnc2c1ncn2C1OC2COP(=O)(S)OC3C(O)C(n4cnc5c(N)ncnc54)C4CC43COP(=O)(S)OC1C2O (single isomer, unassigned) [Compound 1-14b] |  |
|  |  | CO[C@H]1[C@H]2OP(=O)(O)OC[C@]34C[C@@H]3[C@@H](n3cnc5c(N)ncnc53)[C@H](O)[C@@H]4O[P@](=O)([S][Na])OC[C@H]1O[C@H]2n1cnc2c(=O)[nH]c(N)nc21 [Compound 1-10a] | EC50 [2, 5]: 0.25 to 100 µM; EC50 [2, 6]: 0.25 to 100 µM |
| < 0.25 µM | 0.25 to 100 µM | CO[C@H]1[C@H]2OP(=O)(O)OC[C@]34C[C@@H]3[C@@H](n3cnc5c(N)ncnc53)[C@H](O)[C@@H]4O[P@@](=O)(S)OC[C@H]1O[C@H]2n1nnc2c(=O)[nH]c(N)nc21 [Compound 1-35b] |  |
| 0.25 to 100 µM | 0.25 to 100 µM | Nc1nc2c(ncn2[C@H]2[C@@H]3OP(=O)(O)OC[C@H]4O[C@@H](n5cnc6c(N)ncnc65)[C@H](F)[C@@H]4OP(=O)(O)OC[C@]4(C[C@H]24)[C@H]3O)c(=O)[nH]1 [Compound 1-8] |  |
| < 0.25 µM | < 0.25 µM | CO[C@H]1[C@H]2OP(=O)([O-])OC[C@@]34C[C@@H]3[C@@H](n3cnc5c(N)ncnc53)[C@H](O)[C@@H]4OP(=O)([O-])OC[C@H]1O[C@H]2n1cnc2c(=O)[nH]c(N)nc21.[Na+].[Na+] [Compound 1-1] | Cure Rate (TV < 10 mm^3) (CT26 colon carcinoma [1]): 40%; Treatment Failure (TV > 2000 mm^3) (CT26 colon carcinoma [1]): 40%; tumor-free animals at the end of the study (CT26 colon carcinoma [1]; three intratumoral doses of 100 g, 10 mice/group): 4 out of 10 |
|  |  | Nc1nc2c(ncn2[C@H]2[C@H](O)[C@@H]3OP(=O)(O)OC[C@H]4O[C@@H](n5cnc6c(N)ncnc65)[C@H](F)[C@@H]4O[P@](=O)([S][Na])OC[C@@]34C[C@H]24)c(=O)[nH]1 [Compound 1-19a] | EC50 [2, 5]: 0.25 to 100 µM; EC50 [2, 6]: 0.25 to 100 µM |
|  |  | Nc1ncnc2c1ncn2[C@H]1[C@H](O)[C@@H]2O[P@@](=O)([S][Na])OC[C@H]3O[C@@H](n4cnc5c(N)ncnc54)[C@H](OP(=O)(O)OC[C@@]24C[C@H]14)[C@@H]3O [Compound 1-15b] | EC50 [2, 5]: 0.25 to 100 µM; EC50 [2, 6]: 0.25 to 100 µM |
| 0.25 to 100 µM | > 100 µM | Nc1ncnc2c1ncn2C1OC2COP(=O)(S)OC3C(O)C(n4cnc5c(N)ncnc54)C4CC43COP(=O)(S)OC1C2O (single isomer, unassigned) [Compound 1-14a] |  |
| 0.25 to 100 µM | 0.25 to 100 µM | Nc1ncnc2c1ncn2C1OC2COP(=O)(S)OC3C(O)C(n4cnc5c(N)ncnc54)C4CC43COP(=O)(S)OC1C2O (stereo not shown) [Compound 1-14c] |  |
| > 100 µM | > 100 µM | CO[C@H]1[C@H]2OP(=O)(O)OC[C@H]3O[C@@H](n4cnc5c(N)nnnc54)[C@H](O)[C@@H]3OP(=O)(O)OC[C@H]1O[C@H]2n1cnc2c(=O)[nH]c(N)nc21 [Compound 1-11] |  |
| < 0.25 µM | < 0.25 µM | Nc1nc2c(ncn2C2OC34COP(=O)(O)OC5C6OCC5(COP(=O)(O)OC2C3C4)OC6n2cnc3c(N)ncnc32)c(=O)[nH]1 (stereo not shown) [Compound 1-27] |  |
| < 0.25 µM |  | COC1C2COP(=O)(S)OC3C(COP(=O)(S)OC1C(c1snc4c(=O)[nH]c(N)nc14)O2)OC(n1cnc2c(N)ncnc21)C3F (stereo not shown) [Compound 1-48d] |  |
|  |  | Nc1nc2c(nnn2[C@@H]2O[C@@H]3CO[P@@](=O)([S][Na])O[C@H]4[C@@H](O)[C@H](n5cnc6c(N)ncnc65)[C@H]5C[C@@]54COP(=O)(O)O[C@@H]2[C@@H]3O)c(=O)[nH]1 [Compound 1-34b] | EC50 [2, 5]: 0.25 to 100 µM; EC50 [2, 6]: 0.25 to 100 µM |
| 0.25 to 100 µM | > 100 µM | CO[C@H]1[C@H]2OP(=O)(O)OC[C@@]34C[C@@H]3[C@@H](n3cnc5c(N)ncnc53)[C@H](OP(=O)(O)OC[C@H]1O[C@H]2n1cnc2c(=O)[nH]c(N)nc21)[C@@H]4O [Compound 1-3] |  |
| 0.25 to 100 µM | 0.25 to 100 µM | COC1C2COP(=O)(S)OC3C(O)C(n4cnc5c(N)ncnc54)C4CC43COP(=O)(S)OC1C(n1cnc3c(=O)[nH]c(N)nc31)O2 (single isomer, unassigned) [Compound 1-6a] |  |
|  |  | Nc1nc2c(ncn2[C@H]2[C@H](O)[C@@H]3OP(=O)(O)OC[C@]45C[C@@H]4[C@@H](n4cnc6c(N)ncnc64)[C@H](O)[C@@H]5O[P@@](=O)([S][Na])OC[C@@]34C[C@H]24)c(=O)[nH]1 [Compound 1-38b] | EC50 [2, 5]: > 100 µM; EC50 [2, 6]: > 100 µM |
| > 100 µM | > 100 µM | CO[C@H]1[C@H]2OP(=O)(O)OC[C@]34C[C@@H]3[C@@H](n3cnc5c(N)ncnc53)[C@H](O)[C@@H]4OP(=O)(O)OC[C@H]1O[C@H]2c1scc2c(=O)[nH]c(N)nc12 [Compound 1-12] |  |
| < 0.25 µM | < 0.25 µM | COC1C2COP(=O)(O)OC3C(COP(=O)(O)OC1C(c1scc4c(=O)[nH]c(N)nc14)O2)OC(n1cnc2c(N)ncnc21)C3F (stereo not shown) [Compound 1-5] |  |
| < 0.25 µM | < 0.25 µM | CO[C@H]1[C@H]2OP(=O)(O)OC[C@@H]3[C@@H](OP(=O)(O)OC[C@H]1O[C@H]2n1cnc2c(=O)[nH]c(N)nc21)[C@@H](O)[C@]1(n2cnc4c(N)ncnc42)C[C@@H]31 [Compound 1-7] |  |
|  |  | Nc1nc2c(ncn2[C@H]2[C@@H]3OP(=O)(O)OC[C@]45C[C@@H]4[C@@H](n4cnc6c(N)ncnc64)[C@H](O)[C@@H]5O[P@](=O)([S][Na])OC[C@@]4(C[C@H]24)[C@H]3O)c(=O)[nH]1 [Compound 1-37] | EC50 [2, 5]: 0.25 to 100 µM; EC50 [2, 6]: > 100 µM |
| 0.25 to 100 µM | 0.25 to 100 µM | Nc1nc2c(ncn2C2SC3COP(=O)(S)OC4C(O)C(n5cnc6c(N)ncnc65)C5CC54COP(=O)(O)OC2C3O)c(=O)[nH]1 (single isomer, unassigned) [Compound 1-30a] |  |
|  |  | Nc1ncnc2c1ncn2[C@H]1[C@H](O)[C@@H]2O[P@](=O)([S][Na])OC[C@H]3O[C@@H](n4cnc5c(N)ncnc54)[C@H](OP(=O)(O)OC[C@@]24C[C@H]14)[C@@H]3O [Compound 1-15a] | EC50 [2, 5]: > 100 µM; EC50 [2, 6]: > 100 µM |
